Experimental data from ChEMBL document CHEMBL4052831, “The Discovery of N-(1-Methyl-5-(trifluoromethyl)-1H-pyrazol-3-yl)-5-((6- ((methylamino)methyl)pyrimidin-4-yl)oxy)-1H-indole-1-carboxamide (Acrizanib), a VEGFR-2 Inhibitor Specifically Designed for Topical Ocular Delivery, as a Therapy for Neovascular Age-Related Macular Degeneration” (J Med Chem, 2018).
Each block holds one compound with its values, some of them ahead of it.

Assays:
[1] = Intrinsic clearance in rat liver microsomes at 1 uM after 5 to 30 mins by LC-MS/MS analysis; assay type: ADME, microsome; conditions: read-out: CLH
[2] = AUC (0 to last) in posterior eye cup of Brown Norway rat administered 0.3% suspension using 4 uL topical drop to both eyes as single dose by LC-MS/MS analysis; assay type: ADME; conditions: topical or ocular, 4 uL of 0.3% suspension per eye
[3] = Cmax in posterior eye cup of Brown Norway rat administered 0.3% suspension using 4 uL topical drop to both eyes as single dose by LC-MS/MS analysis; assay type: ADME; conditions: topical or ocular, 4 uL of 0.3% suspension per eye
[4] = AUC (0 to last) in retina of Brown Norway rat administered 0.3% suspension using 4 uL topical drop to both eyes as single dose by LC-MS/MS analysis; assay type: ADME, tissue-based; design: dose 4 uL, time 0 - last, route ophthalmic; conditions: topical or ocular, 4 uL of 0.3% suspension per eye
[5] = Cmax in retina of Brown Norway rat administered 0.3% suspension using 4 uL topical drop to both eyes as single dose by LC-MS/MS analysis; assay type: ADME, tissue-based; design: dose 4 uL, route ophthalmic; conditions: topical or ocular, 4 uL of 0.3% suspension per eye
[6] = AUC (0 to last) in plasma of Brown Norway rat administered 0.3% suspension using 4 uL topical drop to both eyes as single dose by LC-MS/MS analysis; assay type: ADME; design: dose 4 uL, time 0 - last, route ophthalmic; conditions: topical or ocular, 4 uL of 0.3% suspension per eye
[7] = Cmax in plasma of Brown Norway rat administered 0.3% suspension using 4 uL topical drop to both eyes as single dose by LC-MS/MS analysis; assay type: ADME; design: dose 4 uL, route ophthalmic; conditions: topical or ocular, 4 uL of 0.3% suspension per eye
[8] = AUC (0 to last) in posterior eye cup of Brown Norway rat administered 0.3% suspension using 4 uL topical drop to both eyes every 3 hrs for 9 hrs over 10 days and single drop to each eye on day 11 by LC-MS/MS analysis; assay type: ADME; conditions: topical or ocular, 4 uL of 0.3% suspension per eye
[9] = Cmax in posterior eye cup of Brown Norway rat administered 0.3% suspension using 4 uL topical drop to both eyes every 3 hrs for 9 hrs over 10 days and single drop to each eye on day 11 by LC-MS/MS analysis; assay type: ADME; conditions: topical or ocular, 4 uL of 0.3% suspension per eye
[10] = AUC (0 to last) in retina of Brown Norway rat administered 0.3% suspension using 4 uL topical drop to both eyes every 3 hrs for 9 hrs over 10 days and single drop to each eye on day 11 by LC-MS/MS analysis; assay type: ADME; conditions: topical or ocular, 4 uL of 0.3% suspension per eye
[11] = Cmax in retina of Brown Norway rat administered 0.3% suspension using 4 uL topical drop to both eyes every 3 hrs for 9 hrs over 10 days and single drop to each eye on day 11 by LC-MS/MS analysis; assay type: ADME; conditions: topical or ocular, 4 uL of 0.3% suspension per eye
[12] = AUC (0 to last) in plasma of Brown Norway rat administered 0.3% suspension using 4 uL topical drop to both eyes every 3 hrs for 9 hrs over 10 days and single drop to each eye on day 11 by LC-MS/MS analysis; assay type: ADME; conditions: topical or ocular, 4 uL of 0.3% suspension per eye
[13] = Cmax in plasma of Brown Norway rat administered 0.3% suspension using 4 uL topical drop to both eyes every 3 hrs for 9 hrs over 10 days and single drop to each eye on day 11 by LC-MS/MS analysis; assay type: ADME; conditions: topical or ocular, 4 uL of 0.3% suspension per eye
Rattus norvegicus [14] = test: Antiangiogenic activity in Brown Norway rat laser-induced choroidal neovascularization model assessed as inhibition of neovascularization administered 3% suspension using 4 uL topical drop to both eyes every 4.5 hrs for 9 hrs by microscopic analysis; assay type: functional
Rattus norvegicus [15] = test: Antiangiogenic activity in Brown Norway rat laser-induced choroidal neovascularization model assessed as inhibition of neovascularization administered topical drop to both eyes as qd by microscopic analysis; assay type: functional
Rattus norvegicus [16] = test: Antiangiogenic activity in Brown Norway rat laser-induced choroidal neovascularization model assessed as inhibition of neovascularization administered both eyes every 3 hrs for 9 hrs by microscopic analysis; assay type: functional
Rattus norvegicus [17] = test: Antiangiogenic activity in Brown Norway rat laser-induced choroidal neovascularization model assessed as inhibition of neovascularization administered both eyes every 4.5 hrs for 9 hrs by microscopic analysis; assay type: functional
[18] = AUC (0 to 6 hrs) in cynomolgus monkey plasma administered 1% solution using 30 uL topical drop to both eyes as single dose by LC-MS/MS analysis; assay type: ADME, Macaca fascicularis; design: time < 6 hr, dose 30 uL, route ophthalmic; conditions: topical or ocular, 30 uL of 1% solution per eye
[19] = Cmax in cynomolgus monkey plasma administered 1% solution using 30 uL topical drop to both eyes as single dose by LC-MS/MS analysis; assay type: ADME, Macaca fascicularis; design: dose 30 uL, route ophthalmic; conditions: topical or ocular, 30 uL of 1% solution per eye
[20] = Half life in cynomolgus monkey plasma administered 1% solution using 30 uL topical drop to both eyes as single dose by LC-MS/MS analysis; assay type: ADME, Macaca fascicularis; conditions: topical or ocular, 30 uL of 1% solution per eye
[21] = Tmax in cynomolgus monkey plasma administered 1% solution using 30 uL topical drop to both eyes as single dose by LC-MS/MS analysis; assay type: ADME, Macaca fascicularis; conditions: topical or ocular, 30 uL of 1% solution per eye
[22] = AUC (0 to 6 hrs) in cynomolgus monkey plasma administered 1% suspension using 30 uL topical drop to both eyes as single dose by LC-MS/MS analysis; assay type: ADME, Macaca fascicularis; design: time < 6 hr, dose 30 uL, route ophthalmic; conditions: topical or ocular, 30 uL of 1% suspension per eye
[23] = Cmax in cynomolgus monkey plasma administered 1% suspension using 30 uL topical drop to both eyes as single dose by LC-MS/MS analysis; assay type: ADME, Macaca fascicularis; design: dose 30 uL, route ophthalmic; conditions: topical or ocular, 30 uL of 1% suspension per eye
[24] = Half life in cynomolgus monkey plasma administered 1% suspension using 30 uL topical drop to both eyes as single dose by LC-MS/MS analysis; assay type: ADME, Macaca fascicularis; conditions: topical or ocular, 30 uL of 1% suspension per eye
[25] = Tmax in cynomolgus monkey plasma administered 1% suspension using 30 uL topical drop to both eyes as single dose by LC-MS/MS analysis; assay type: ADME, Macaca fascicularis; conditions: topical or ocular, 30 uL of 1% suspension per eye

microsomal CLint at 1 µM [1]: 91 µL/min/mg
SMILES: CNCc1cc(Oc2ccc3c(ccn3C(=O)Nc3cc(C4(C)CC4)on3)c2)ncn1

AUC(0-t) [2]: 52 µM·h
Cmax [3]: 5690 nM
AUC(0-t) [4]: 4.63 µM·h
Cmax [5]: 683 nM
AUC(0-t) [6]: 0.0343 µM·h
Cmax [7]: 36.6 nM
AUC(0-t) [8]: 515 µM·h
Cmax [9]: 31800 nM
AUC(0-t) [10]: 14.3 µM·h
Cmax [11]: 1910 nM
AUC(0-t) [12]: 0.0244 µM·h
Cmax [13]: 32.1 nM
microsomal CLint at 1 µM [1]: 156 µL/min/mg
AUC(0-t) at 6 h [18]: 0.0644 µM·h
Cmax [19]: 26.9 nM
half-life [20]: 1.61 h
Tmax [21]: 0.67 h
AUC(0-t) at 6 h [22]: 0.0227 µM·h
Cmax [23]: 5.38 nM
half-life [24]: 4.38 h
Tmax [25]: 1.67 h
SMILES: CNCc1cc(Oc2ccc3c(ccn3C(=O)Nc3cc(C(F)(F)F)n(C)n3)c2)ncn1
inhibition (INH) (Rattus norvegicus [14]): 94%
ED50 (Rattus norvegicus [15]): 1.4%
ED50 (Rattus norvegicus [16]): 0.5%
ED90 (Rattus norvegicus [16]): 1.2%
ED50 (Rattus norvegicus [17]): 1%
ED90 (Rattus norvegicus [17]): 2.6%

microsomal CLint at 1 µM [1]: 131 µL/min/mg
SMILES: CNCc1cc(Oc2ccc3c(ccn3C(=O)Nc3cc(C(F)(F)F)[nH]n3)c2)ncn1

microsomal CLint at 1 µM [1]: 52.3 µL/min/mg
SMILES: CNCc1cc(Oc2ccc3c(ccn3C(=O)Nc3cc(C(C)C)[nH]n3)c2)ncn1
